Data reported in patent US8785401B2, “Methods for treating diseases having an inflammatory component related to phospholipase A2” (Philadelphia Health & Education Corporation, priority 2005, dated 2014).

System: sPLA2
Details: CHEC-9 0.4 μM, LY31127 5.0 μM, whole blood, two 90 min periods at 4°

**Q.** For `CCc1c(CC(N)=O)c2cc(OCCCP(=O)(O)O)ccc2n1Cc1ccccc1` [LY311727], which “comparison of sPLA2 inhibition by the inhibitors alone and in sequence” value is on record?
**A.** Its value is “equally effective inhibitors”.
